The source of these data is US20250325520A1, “Methods for Targeting Cancer Cells Using Amino Acids” (University of Denver, priority 2024, published 2025).

Series [1] concerns PANC-1 and MIA PaCa-2 (malignant pancreas epithelial) cells. Description: Cell viability / cytotoxicity (CCK-8) on PDAC tumor cells. In kind it is cell-based, human. Particulars: for cytotoxic efficacy on tumor cells / viability dose response of tumor cells: individual amino acid, 48 hours, FIGS. 7, 8. As to the method: (§1) Malignant pancreatic cell lines (PANC-1 and MIA PaCa-2) and nonmalignant human pancreas cell line (HPNE) were obtained from the American Type Culture Collection (Manassas, Virginia). The cells were cultured in DMEM medium (HYCLONE™ sera, available from GE Healthcare Life Sciences) with HPNE cells having 0.1 ng/ml EGF (Novus Biologicals, USA) included. All cultures were supplemented with 10% fetal bovine serum (FBS, Life Technology, Thermo Fisher Scientific Inc.), penicillin (1 U), and streptomycin (1 μg/ml). All cells were maintained in a humidified incubator with 5% CO2 at 37° C. All cell lines were cultured in triplicate under the same conditions, then harvested to collect independent exosome samples. Cells were seeded in 96-well plates at a density of 10^4 cells/well. After 24 hours, culture medium with increasing concentrations of treatment was added to the treatment group for 48 hours. Cell viability was accessed by Cell Counting Kit-8 (CCK-8; Dojindo Laboratories) following the manufacturer's instructions. Briefly, a mixture of 10 μl of CCK-8 and 190 μl media was added into each well and the cells were incubated for another 1 hour. The absorbance of each well was measured at 450 nm using a microplate reader. Each experiment was repeated six times.

Series [2] relates to PANC-1 subcutaneous pancreatic tumor. Put plainly: Subcutaneous PANC-1 xenograft in nude mice. In kind it is in vivo. Particulars: AA oral gavage daily, GEM intraperitoneal twice a week, n=5, FIG. 32.
Description: In particular, the xenograft model was established with six to eight-week-old male nude mice (J:NU-Foxn1nu) purchased from The Jackson Laboratory (Bar Harbor, ME). […] The pancreatic cancer tumor was injected subcutaneously into the left flank of each mouse with 4×10^6 PANC-1 cells suspended in 100 μl of serum-free media with 50% […] ® matrix to establish a subcutaneous pancreatic tumor.
Mice were observed three times daily for the first seven days and tumor xenograft was confirmed by the presence of the tumor. […] Tumor volume and mice weight were measured every fifth day. Tumor volume was established by measuring length and width; the volume formula used was the modified ellipsoid volume formula (½ length×width 2).
For AA and control groups, treatment was given by oral gavage. AA treatment was made from a combination of histidine (44 mg/ml) and isoleucine (22 mg/ml) dissolved in PBS. For the two groups with AA, oral gavage treatment was administered daily with 200 μl AA treatment using a 20 ga polypropylene feeding tube attached to a syringe. For the control group, oral gavage treatment was administered using the same method except with 200 μl PBS. For the GEM and AA+GEM groups, GEM was given by intraperitoneal injection. GEM groups were injected twice a week with 200 μl of GEM (15 mg/ml) dissolved in PBS. All treatments were administered for sixty days. […]
The nature of series [3]: pH change of the media caused by amino acid addition. Particulars: culture media, FIG. 6. In kind it is physicochemical.
In series [4] the test system is hTert-HPNE (nonmalignant pancreas epithelial) cells. Put plainly: Cell viability / cytotoxicity (CCK-8) on nontumor cells. Particulars: individual amino acid, 48 hours, FIGS. 7, 8. In kind it is cell-based, human. As to the method: as §1

With `Nc1ccn([C@@H]2O[C@H](CO)[C@@H](O)C2(F)F)c(=O)n1` [GEM, gemcitabine, reference compound], the “time-dependent cytotoxicity to tumor cells” value in series [1] (AA compared with GEM, FIG. 13) is “faster efficacy and is more tumoricidal effective”. Moreover, in series [2], the “antitumor efficacy (tumor volume)” value is “showed antitumor efficacy”.
For the compound `N=C(N)NCCC[C@H](N)C(=O)O` [arginine, reference compound], in series [3], the “pH change caused by amino acid addition” value is given as “significant pH change”.
As to `N[C@@H](CS)C(=O)O` [cysteine, reference compound], in series [3], the “pH change caused by amino acid addition” value was “significant pH change”.
`N[C@@H](Cc1c[nH]cn1)C(=O)O` [histidine]: in series [1], the “cytotoxic efficacy on tumor cells” value is “selective cytotoxic efficacy” and the “viability dose response of tumor cells” value is recorded as “monotonic dose response”. The “pH change caused by amino acid addition” value in series [3] is reported as “trivial impact”. In addition, the “cell viability of nontumor cells” value in series [4] is reported as “no significant difference in cell viability”.
On the same counts, the results for `CC[C@H](C)[C@H](N)C(=O)O` [isoleucine] are “selective cytotoxic efficacy”, “monotonic dose response”, “trivial impact” and “no significant difference in cell viability”.
